Experimental data published in patent US10881110B2, “Herbicidal compositions comprising isoxazolo[5,4-b]pyridines” (BASF SE, priority 2014, dated 2021).
“And” between values parts separate entries of the source, which are not always exact repeats. Equal values may be shown once. Read-outs that look alike come from different tables or passages of the source.

What was measured:
Assay in all cases: greenhouse post-emergence herbicidal test
[1] = system: ABUTH; assay type: in vivo, Abutilon theophrast; parameters: key to herbicidal activity against ABUTH found: rating on a scale from 0 to 100; settings: post emergence; for pest or weed control at 31.25 g/ha / pest or weed control at 62.5 g/ha: Abutilon theophrasti, post-emergence, 480 h, read-out: herbicidal activity against ABUTH found
Outline: (§1)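 Each species was sown separately, grown to a height of 1 to 15 cm and then sprayed with water-dispersed components A, B and where relevant C. Growth conditions were 10-25° C or 20-35° C, and percent damage was recorded at 20 days.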

[2] = system: PANMI; assay type: in vivo, Panicum miliaceum; settings: application rate a.i.: I.1 125 g/ha, alone or as mixture (composition 1.113)
Protocol: The culture containers used were plastic pots containing medium loamy sand with approximately 4.6% of humus and 69.9% sand as substrate. The seeds of the test plants were sown separately for each species.
For the post-emergence treatment, the test plants were grown to a plant height of from 1 to 15 cm, depending on the plant habit, and only then treated with the active compounds which had been suspended or emulsified in water. To this end, the test plants were either sown directly, and grown in the same containers, or they were first grown separately as seedlings and transplanted into the test containers a few days prior to treatment.
Depending on the species, the plants were kept at 10-25° C. and 20-35° C., respectively.
The test period extended over 1 to 3 weeks. During this time, the plants were tended and their response to the individual treatments was evaluated 20 days after treatment except mentioned otherwise.
Evaluation was carried out using a scale from 0 to 100. 100 means no emergence of the plants, or complete destruction of at least the above-ground parts, and 0 means no damage or normal course of growth.
The respective stated components A and B, and, if appropriate, C, were formulated as a 10% by weight strength emulsion concentrate and, with addition of the amount of solvent system, introduced into the spray liquor used for applying the active compound. In the examples, the solvent used was water.
In the examples below, using the method of S. R. Colby (1967) “Calculating synergistic and antagonistic responses of herbicide combinations”, Weeds 15, p. 22 ff., the value E, which is expected if the activity of the individual active compounds is only additive, was calculated. E=X+Y−(X·Y/100)

[3] = system: GERDI; assay type: in vivo, Geranium dissectum; parameters: key to herbicidal activity against GERDI found: rating on a scale from 0 to 100; settings: post emergence
Outline: as §1

[4] = I.1 62.5 g/ha, B.167 125 g/ha a.i.

## O=C(O)c1cc(C2CC2)nc2onc(C3CC3)c12 [I.1]
[1]; I.1 alone 31.25 g/ha a.i.
  pest or weed control at 31.25 g/ha: 0%
[1]; I.1 alone 62.5 g/ha a.i.
  pest or weed control at 62.5 g/ha: 65%
[1]; 62.5 g/ha a.i.
  pest or weed control at 62.5 g/ha: 25%
[1]; I.1 31.25 g/ha a.i.
  pest or weed control at 31.25 g/ha: 20%
[1]; single active, 31.25 g/ha a.i.
  pest or weed control at 31.25 g/ha: 0%
[1]; 6 days after treatment, g/ha a.i.: I.1 31.25, B.96 35, mixture 31.25+35
  herbicidal activity against ABUTH found: 35
[1]; 6 days after treatment, g/ha a.i.: I.1 31.25, B.96 70, mixture 31.25+70
  herbicidal activity against ABUTH found: 35
[1]; 6 days after treatment, g/ha a.i.: I.1 31.25, naptalam 100, mixture 31.25+100
  herbicidal activity against ABUTH found: 35
[1]; I.1 31.25 g/ha, B.88 1 g/ha a.i.
  herbicidal activity against ABUTH found: 60
[1]; I.1 31.25 g/ha, B.89 25 g/ha a.i.
  herbicidal activity against ABUTH found: 60
[1]; I.1 62.5 g/ha, B.167 62.5 g/ha a.i.
  herbicidal activity against ABUTH found: 0
[1]; [4]
  herbicidal activity against ABUTH found: 0
[1]; a.i. g/ha: I.1 7.8, B.67 125, 20 days after treatment
  herbicidal activity against ABUTH found: 0%
[1]; a.i. g/ha: I.1 15.6, B.67 125, 20 days after treatment
  herbicidal activity against ABUTH found: 30%
[1]; a.i. g/ha: I.1 31.25, B.67 125, 20 days after treatment
  herbicidal activity against ABUTH found: 60%
[1]; a.i. g/ha: I.1 31.25, B.67 125, 20 days after treatment, sub-table r36-r43
  herbicidal activity against ABUTH found: 60%
[1]; a.i. g/ha: I.1 62.5, B.67 125, 20 days after treatment
  herbicidal activity against ABUTH found: 90%
[1]; a.i. g/ha: I.1 62.5, B.69 25, 20 days after treatment
  herbicidal activity against ABUTH found: 50%
[1]; application rate a.i.: I.1 20.8 g/ha, B.107 (topramezone) 6 g/ha, alone or as mixture (composition 1.107)
  herbicidal activity against ABUTH found: 0
[1]; application rate a.i.: I.1 31.25 g/ha, B.139 (pyroxasulfone) 25 g/ha, alone or as mixture (composition 1.139)
  herbicidal activity against ABUTH found: 10
[1]; application rate a.i.: I.1 62.5 g/ha, B.107 (topramezone) 6 g/ha, alone or as mixture (composition 1.107)
  herbicidal activity against ABUTH found: 66
[1]; applied alone at 31.25 g/ha a.i.
  herbicidal activity against ABUTH found: 30 and 25
[1]; applied alone at 62.5 g/ha a.i.
  herbicidal activity against ABUTH found: 50 and 85
[1]; applied alone at 125 g/ha a.i.
  herbicidal activity against ABUTH found: 60
[1]; g/ha a.i.: I.1 31.25, B.20 2, mixture 31.25+2
  herbicidal activity against ABUTH found: 15
[1]; g/ha a.i.: I.1 31.25, B.20 4, mixture 31.25+4
  herbicidal activity against ABUTH found: 15
[1]; g/ha a.i.: I.1 31.25, B.24 2, mixture 31.25+2
  herbicidal activity against ABUTH found: 15
[1]; g/ha a.i.: I.1 31.25, B.52 2.5, mixture 31.25+2.5
  herbicidal activity against ABUTH found: 15
[1]; g/ha a.i.: I.1 31.25, B.52 5, mixture 31.25+5
  herbicidal activity against ABUTH found: 15
[1]; g/ha a.i.: I.1 62.5, B.52 2.5, mixture 62.5+2.5
  herbicidal activity against ABUTH found: 60
[2]; B.113 (glyphosate) 33.75 g/ha
  herbicidal activity against PANMI, found: 60
[2]; B.113 (glyphosate) 135 g/ha
  herbicidal activity against PANMI, found: 60
[3]; Geranium dissectum, post-emergence, 480 h, 62.5 g/ha a.i., read-out: herbicidal activity against GERDI found
  pest or weed control at 62.5 g/ha: 90%
[3]; Geranium dissectum, post-emergence, 480 h, I.1 31.25 g/ha a.i., read-out: herbicidal activity against GERDI found
  pest or weed control at 31.25 g/ha: 50%
[3]; Geranium dissectum, post-emergence, 480 h, I.1 62.5 g/ha a.i., read-out: herbicidal activity against GERDI found
  pest or weed control at 62.5 g/ha: 55%
[3]; Geranium dissectum, post-emergence, 480 h, single active, 15.625 g/ha a.i., read-out: herbicidal activity against GERDI found
  pest or weed control at 15.625 g/ha: 0%
[3]; Geranium dissectum, post-emergence, 480 h, single active, 31.25 g/ha a.i., read-out: herbicidal activity against GERDI found
  pest or weed control at 31.25 g/ha: 10%
[3]; Geranium dissectum, post-emergence, 480 h, single active, 62.5 g/ha a.i., read-out: herbicidal activity against GERDI found
  pest or weed control at 62.5 g/ha: 60%
[3]; Geranium dissectum, post-emergence, 480 h, single active, 125 g/ha a.i., read-out: herbicidal activity against GERDI found
  pest or weed control at 125 g/ha: 70%
[3]; I.1 15.6 g/ha, B.103 7.5 g/ha a.i.
  herbicidal activity against GERDI found: 0
[3]; I.1 15.62 g/ha, B.89 25 g/ha a.i.
  herbicidal activity against GERDI found: 0
[3]; I.1 31.25 g/ha, B.103 7.5 g/ha a.i.
  herbicidal activity against GERDI found: 30
[3]; I.1 31.25 g/ha, B.103 15 g/ha a.i.
  herbicidal activity against GERDI found: 30
[3]; I.1 62.5 g/ha, B.103 7.5 g/ha a.i.
  herbicidal activity against GERDI found: 60
[3]; I.1 62.5 g/ha, B.103 15 g/ha a.i.
  herbicidal activity against GERDI found: 60
[3]; [4]
  herbicidal activity against GERDI found: 60
[3]; I.1 62.5 g/ha, B.88 1 g/ha a.i.
  herbicidal activity against GERDI found: 0
[3]; I.1 62.5 g/ha, B.88 2 g/ha a.i.
  herbicidal activity against GERDI found: 0
[3]; I.1 62.5 g/ha, B.89 12.5 g/ha a.i.
  herbicidal activity against GERDI found: 0
[3]; I.1 62.5 g/ha, B.89 25 g/ha a.i.
  herbicidal activity against GERDI found: 0
[3]; I.1 62.5 g/ha, B.95 1 g/ha a.i.
  herbicidal activity against GERDI found: 0
